In PMC7845544 (Frontiers in Pharmacology, 2021):
“Also recorded” adds a separate entry of the source.

Columns and labels:
hFSHR = molecular target: T1, hFSHR (Homo sapiens, UniProt P23945); assay: cAMP (HTRF) in CHO cells transfected with hFSHR; format: cell-based; conditions: for EC50: compounds in presence of EC20 ligand (Figure 1 legend); for EC50 / % Response, CHO-hFSHR: mean ± SEM; for % Response, CHO-hFSHR: maximal cAMP vs maximal response of protein ligand FSH
T1 construct: expressed in transfected cells
T1 sequence (P23945 18-695): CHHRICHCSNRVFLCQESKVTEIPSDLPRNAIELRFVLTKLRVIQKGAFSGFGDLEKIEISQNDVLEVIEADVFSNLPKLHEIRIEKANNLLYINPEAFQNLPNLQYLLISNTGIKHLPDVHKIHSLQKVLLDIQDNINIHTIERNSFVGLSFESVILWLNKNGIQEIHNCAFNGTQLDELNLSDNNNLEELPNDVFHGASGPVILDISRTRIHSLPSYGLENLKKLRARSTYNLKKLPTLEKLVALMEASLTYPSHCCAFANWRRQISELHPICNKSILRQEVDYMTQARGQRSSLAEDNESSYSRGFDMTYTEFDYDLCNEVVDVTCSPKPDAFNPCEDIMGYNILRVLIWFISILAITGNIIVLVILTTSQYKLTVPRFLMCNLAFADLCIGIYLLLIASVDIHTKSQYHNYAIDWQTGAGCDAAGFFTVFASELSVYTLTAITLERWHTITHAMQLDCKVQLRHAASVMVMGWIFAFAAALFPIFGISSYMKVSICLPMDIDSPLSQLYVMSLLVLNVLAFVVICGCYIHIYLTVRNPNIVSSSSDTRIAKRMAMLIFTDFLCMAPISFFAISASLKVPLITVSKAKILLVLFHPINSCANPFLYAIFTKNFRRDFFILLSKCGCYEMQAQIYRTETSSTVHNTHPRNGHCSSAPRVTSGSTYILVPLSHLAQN
Method: Chinese hamster ovary (CHO) cells transfected with hFSHR, hLHR or hTSHR were grown as described previously ([Kelton et al., 1992]; [Persani et al., 1993]; [Yu et al., 2014]). In brief, CHO-hFSHR and CHO-hTSHR were maintained in DMEM/F12 + 10% FBS in T150 culture flasks. The cells were cultured until they reached 70–80% confluence (three days) and were then used for assays or passaged. CHO-hLHR ([van de Lagemaat et al., 2009]; [Sriraman et al., 2014]) was cultured in MEM alpha (++) +10% FBS and G418, and passaged every three days. CHO-hFSHR or −hLHR or −hTSR cells (2,500/well) were plated in 5 µL of phenol red free DMEM/F12 + 1% FBS in 384 well solid white low volume plates (Greiner 784075) by Multidrop. […] The plates were incubated at 37°C for 1 h. After the incubation period, cAMP was measured by HTRF® (homogeneous time-resolved fluorescence) assay (CisBio, Bedford, MA). In brief, conditioned media were incubated with cryptate-labeled cAMP antibody and d2-labeled cAMP in lysis buffer for 1 h. Free cAMP produced by cells competes with cAMP-d2 for binding to the anti-cAMP cryptate. An increase in cellular cAMP leads to a decrease in fluorescence resonance energy transfer, which is detectable as a decrease in the emission at 665 nm, measured by Envision fluorescence reader (PerkinElmer, Waltham, MA). The readout was calculated fluorescence ratio (665/620 nm). Values given in percent (%) indicate the percent response at a certain concentration of agonist relative to the maximum response of the protein ligand standard.

rat Leydig cells = assay: Testosterone production from rat primary Leydig cells; format: cell-based; conditions: 3 h incubation
Method: Testes were obtained from 21 day old male SD rats, decapsulated into DMEM/F12 media, placed into a spinner flask containing pre-warmed 25 ml digestion media (DMEM/F12 no phenol red + 1 mg/ml Collagenase), and stirred at 37°C in 5% CO2 incubator for 10–15 min ([Hedger et al., 1990]). The digestion supernatant was passed through a 70 um cell strainer into a 50 ml tube, and the digestion was stopped with 0.1% BSA + 0.1 mg/ml trypsin soybean inhibitor) in 50 ml. The digested cells were centrifuged at 800 rpm for 5 min, the supernatant discarded and the cell pellet resuspend in 1 ml assay buffer (DMEM/F12 no phenol red +0.1% BSA) per paired testes. The cells were counted and diluted to 5 × 10^6 cells/ml, and 50 ul of this cell suspension was added to each well of a 96-well plate. Testes obtained from five 21 day old rats generally yielded 1 × 10^8 cells. […] At the end of incubation, media was collected and testosterone measured by ELISA (EIA‐1559, DRG).

human granulosa cells = assay: Estradiol production from pooled human granulosa-lutein cells (Boston IVF); format: cell-based; conditions: for EC50: pooled granulosa-lutein cells from two patients (Figure 4A), read-out: EC50, 17β-estradiol production; for maximal 17β-estradiol response: three patients (Figure 4B)
Method: Human granulosa cells were prepared from the spent follicular fluid of women undergoing IVF treatment at Boston IVF Center (Waltham, MA, United States) and at Family Fertility Center (Baylor College of Medicine, Houston, TX, United States) following methods previously established ([Breckwoldt et al., 1996]; [Amsterdam et al., 2003]). Institutional review board approval and informed consent from the patients were obtained before collecting the follicular fluid samples. In brief, red blood cells (RBCs) in the follicular aspirate were lyzed using RBC lysis buffer (Quality Biological Inc., Gaithersburg, MD, United States), and washed extensively with PBS and DMEM/F12 containing 5% FBS, fungizone, and the antibiotics penicillin (100 IU/ml) and streptomycin (100 μg/ml). Subsequently, cells from the aspirate were plated in T75 flasks, cultured for 7 days with fresh media being replaced every other day. At the end of the culture period, cells were released from the flask by trypsin and transferred to 96-well plates (5,000 cells/well, Greiner Bio-One). Following 48 h of culture, media in culture wells was replaced with serum free media containing 0.1% BSA and 10^−7 M androstenedione. Following 24 h of serum starvation, cells were stimulated with fresh media (0.1% BSA, 10^−7 M androstenedione) with FSH or compound for 48 h. Supernatant was collected and stored at −80C for determination of estradiol by ELISA.

immature SD rats = assay: Superovulation assay in immature rats; format: in vivo, rat; conditions: for minimal effective dose, cumulus oocyte complexes (COC): with low dose rec-hFSH (0.29 IU)
Method: Immature SD rats and B6C3F1 mice (both 18–21 day old females) were purchased from Charles-River laboratories (Wilmington, MA, United States and Shanghai, China). All animals were treated in accordance to Chempartner (Shanghai, China) or Embryotech (Haverhill, MA, United States) IACUC approved animal protocols. The animals were provided water and food ad libitum and housed under 12 h dark and 12 h light schedules.
Immature rats and mice were used to investigate the ability of the small molecules to induce follicular development and support ovulation as described elsewhere ([Steelman and Pohley, 1953]) with modifications ([Sriraman et al., 2014]). […] The isolated COC’s were treated with hyaluronidase and the total number of ovulated oocytes was determined microscopically.
Plasma concentrations of FSHR-AA were measured during superovulation assays, except for experiments where plasma was collected for estradiol measurements.

[1] = microsomes
[2] = mouse, microsomes

Row | Compound | EC50 (hFSHR) | % Response, CHO-hFSHR (hFSHR) | testosterone production from cultured rat Leydig cells (rat Leydig cells) | EC50 (human granulosa cells) | maximal 17β-estradiol response (human granulosa cells; second culture) | number of COCs vs 1.16 IU rec-hFSH (immature SD rats; 50 mg/kg, oral, with 0.29 IU rec-hFSH) | serum estradiol-17β production (immature SD rats; 5, 10 and 25 mg/kg, immature rat) | follicular maturation with or without supplemental rec-hFSH (0.29 IU) (immature SD rats; immature rat, oral) | single daily dose (QD) vs twice daily (BID) administration, follicular maturation (immature SD rats; immature rat, oral gavage, with 0.29 IU FSH) | minimal effective dose, cumulus oocyte complexes (COC) (immature SD rats; immature rat, oral) | Clint, dog [1] | Clint, mice [2] | fold more potent than TOP5300 in hFSHR-AA activity (hFSHR; CHO-hFSHR) | fold more potent than TOP5300, 17β-estradiol production (human granulosa cells; pooled cells from two patients (Figure 4A)) | fold greater maximal estradiol response than rec-hFSH (human granulosa cells; pooled human granulosa cells, second culture (Figure 4B)) | potency shift to the left of TOP5300 (human granulosa cells; second culture, pooled cells from three patients (Figure 4B)) | fold more potent than TOP5300, superovulation dose response (immature SD rats; immature rat)
1 | COc1cc2c(cc1-c1cnn(CCO)c1)-c1c(c(C(=O)N(C)C(C)(C)C)nn1-c1cc(Cl)cc(Cl)c1)CO2 [TOP5300] | 9.72 nM | 98.4 ± 0.31% | stimulated concentration-dependent increases in testosterone production | 474 nM | 200 ng/mL | not significantly different from 1.16 IU rec-hFSHH | followed the follicular stimulation response | full agonist | stimulates similar follicular growth; also recorded: equally effective as twice daily administrations | 5 mg/kg | 37 µl/min/mg protein | 19 µl/min/mg protein | – | – | – | – | –
2 | COc1cc(C(N)=O)cc(-c2cc3c(cc2OC)OCc2c(C(=O)N(C)C(C)(C)C)nn(-c4cc(Cl)cc(Cl)c4)c2-3)n1 [TOP5668] | 2.2 nM | 100.75 ± 0.51% | very little activity | 15 nM | 200 ng/mL | – | – | – | – | 2.5 mg/kg | 44 µl/min/mg protein | 10 µl/min/mg protein | 3-4 fold | 30 fold | approximately 7 fold | ~100 fold | approximately 2 fold
